One molecule from patent publication US20110319640A1, “LARGE-SCALE PURIFICATION OF 2-PYRONE-4,6-DICARBOXYLIC ACID” (KABUSHIKI KAISHA TOYOTA JIDOSHOKKI, priority 2007, published 2011) can be followed below.

A short description of the data set: water solubility of PDC and PDC complex salts (FIG. 2). Type of data set: physicochemical. The following applies: in water; free compound. The source says:
Hereinafter, a complex salt formed centering on the Carbonyl group of PDC may be referred to as “a PDC complex salt,” in order to distinguish from a complex salt described in the section of salts of cations. The structure of a […] complex salt is described in many references (for example, Acta. Cryst. (1992) C48, 460-465).

Turning to `O=C(O)c1cc(C(=O)O)oc(=O)c1` [free PDC, 2-pyrone-4,6-dicarboxylic acid], the water solubility amounted to 182 mM.
